Experimental data taken from ChEMBL document CHEMBL3399996, “Marine natural products as inhibitors of cystathionine beta-synthase activity” (Bioorg Med Chem Lett, 2015).

Molecular target: T1, Cystathionine beta-synthase (Homo sapiens, UniProt P35520)
T1 sequence (P35520 whole entry): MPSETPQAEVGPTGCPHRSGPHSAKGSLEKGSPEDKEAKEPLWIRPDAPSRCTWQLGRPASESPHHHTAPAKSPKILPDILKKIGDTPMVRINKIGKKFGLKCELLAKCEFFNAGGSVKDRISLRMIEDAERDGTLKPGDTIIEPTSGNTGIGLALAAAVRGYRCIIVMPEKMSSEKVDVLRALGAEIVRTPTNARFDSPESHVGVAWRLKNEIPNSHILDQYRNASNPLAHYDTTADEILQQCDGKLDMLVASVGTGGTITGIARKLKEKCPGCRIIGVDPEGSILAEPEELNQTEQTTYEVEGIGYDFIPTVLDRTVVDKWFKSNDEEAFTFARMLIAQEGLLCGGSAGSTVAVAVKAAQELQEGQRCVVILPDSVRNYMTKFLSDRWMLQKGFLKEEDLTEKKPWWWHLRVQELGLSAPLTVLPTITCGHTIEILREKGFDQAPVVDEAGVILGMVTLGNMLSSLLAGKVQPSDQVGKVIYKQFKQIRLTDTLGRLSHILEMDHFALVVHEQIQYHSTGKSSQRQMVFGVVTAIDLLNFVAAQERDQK
Assay: Inhibition of full-length wild-type cystathionine beta-synthase (unknown origin) assessed as inhibition of H2S production by fluorescence assay in presence of S-adenosylmethionine

| Compound | IC50 |
| --- | --- |
| O=C1NC(=S)N/C1=C\c1ccccc1 | 170 µM |
| COc1cc(/C=C2\NC(=S)NC2=O)ccc1OC(C)=O | 83 µM |
| COc1cc(/C=C2\N=C(SC)N(C)C2=O)ccc1O | 87 µM |
| C[C@@]12CCC(=O)c3coc(c31)C(=O)c1cc3cccc(OS(=O)(=O)O)c3cc12 | 136 µM |
| NC(=O)c1cc(Br)c(Br)[nH]1 | 156 µM |

Next, values leading:

| IC50 | Compound |
| --- | --- |
| 125 µM | O=C1NC(=S)N/C1=C\c1ccc(O)c(O)c1 |
| 187 µM | COc1cc(/C=C2\NC(=S)NC2=O)ccc1O |
| 108 µM | O=C1C=C(c2cc(Br)c(O)c(Br)c2)/C(=C/c2cc(Br)c(O)c(Br)c2)O1 [RUBROLIDE A] |
